From patent US11059830B2, “Compounds that participate in cooperative binding and uses thereof” (Revolution Medicines, Inc., priority 2015, dated 2021)

Columns and labels:
FKBP12 [1] = target: T1, FKBP12 (Homo sapiens (Human), UniProt P62942); assay: AlphaLISA FKBP12 binding: inhibition of binding of biotinylated FK506 to FLAG tagged FKBP12; details: read-out: Binding affinity to FKBP12 (by displacement of FK506)
Text: The binding of compounds of the invention to FKBP12 can be determined using the following protocol.
This protocol utilizes Perkin Elmers AlphaLISA technology platform to detect FKBP binders by measuring the inhibition of binding of biotinylated FK506 to FLAG tagged FKBP12.
10×TBST Buffer (Boston BioProducts IBB-181), Biotinylated FK506 (in-house), FLAG tagged FKBP (in-house); anti-FLAG Donor beads (Perkin Elmer AS103) and Streptavidin Acceptor beads (Perkin Elmer AL125); Compounds in DMSO (in-house), FK506.
Experimental Protocol/Description of Assay: Add 20 uL of 12.5 nM FKBP-FLAG working stock to each well of the 96-well plate. Add 1 uL of test compound (100% DMSO) to each well of the plate using the Janus MTD head and P20 tips (except control wells). Add 1 uL of DMSO to negative control wells and 1 uL of 50 uM FK506 solution to positive control wells. In the dark, add 20 uL of combined Donor/Acceptor beads to each well. Incubate in the dark for 30 minutes at room temperature. In the dark, add 10 uL of 5 nM biotinylated FK506 working stock to each well. Incubate in the dark for 60 minutes at room temperature. Protect plate from light until reading on Biotek Synergy2 Plate Reader; Alphalisa 96-well protocol (680 excitation/615 emission).

FKBP12 [2] = target: T1, FKBP12; assay: SPR kinetics of Compound 2 and Compound 6 binding to immobilized FKBP12 (Example 8); details: compound to immobilized FKBP12, 25° C.
Experimental: This protocol utilizes Surface Plasmon Resonance (SPR) as a method to determine kinetics (KD, Ka, Kd) for the binding of Compound 2 and Compound 6 (analyte) to immobilized FKBP12 (ligand).
Compound 2 and Compound 6 in 100% DMSO (in-house), 10×HBS-P+ buffer (GE Healthcare BR-1006-71), Assay buffer (1×HBS-P+ buffer, 1% DMSO), 12×HIS tagged FKBP12 (in-house).
(§1) Experiments are performed at 25° C. Stock solution of 12×HIS tagged FKBP12 is diluted to 100 nM in assay buffer (1% DMSO final). Approximately 500-600 RU of FKBP12 is immobilized on one of two flow cells of an activated NTA chip. The second flow cell is not activated as a reference for non-specific interaction of the analyte to the sensor chip. Various concentrations of Compound 2 or Compound 6 (1 nM-1 μM range), serially diluted into the same assay buffer (1% DMSO final), are injected onto the FKBP12 surface and reference surface at a flow rate of 10 μl/min. The surface is regenerated between analyte injections with 350 mM EDTA.
(§2) The BiaEvaluation software program is used for data fitting. All data is reference subtracted against both the reference flow cell and a buffer injection. For kinetic analyses, data is locally fit to a 1:1 interaction model.

[3] = target: T2, CEP25011.4 (residues 2134-2231) (Homo sapiens (Human), UniProt P62942+Q9BV73); assay: SPR binding of CEP250 (analyte) to immobilized FKBP12-Compound 2 binary complex; details: FKBP12/Compound 2 complex binding to CEP25011.4, SPR, 1 μM compound
Experimental: (§3) This protocol utilizes Surface Plasmon Resonance (SPR) as a method to determine kinetics (KD, Ka, Kd) for the binding of CEP250 (analyte) to immobilized FKBP12-Compound 2 binary complex (ligand).
(§4) Compound 2 in 100% DMSO (in-house), 10×HBS-P+ buffer (GE Healthcare BR-1006-71), Assay buffer (1×HBS-P+ buffer, 1% DMSO, 1 μM Compound 2), 12×HIS tagged FKBP12 (in-house), CEP25029.2 (residues 1982-2231) and CEP25011.4 (residues 2134-2231) (in-house).
as §1, with “buffer containing 1 μM Compound 2” for “buffer”, “200-400” for “500-600”, “CEP250” for “Compound 2 or Compound 6”
as §2

[4] = target: CEP25029.2 (residues 1982-2231) (Homo sapiens (Human), UniProt P62942+Q9BV73); assay: as above; details: FKBP12/Compound 2 complex binding to CEP25029.2, SPR, 1 μM compound
Experimental: as §3, §4
as §1, with “buffer containing 1 μM Compound 2” for “buffer”, “200-400” for “500-600”, “CEP250” for “Compound 2 or Compound 6”
as §2

[5] = target: T2, CEP25011.4 (residues 2134-2231); assay: ITC binding of FKBP12-compound binary complex to CEP250
Experimental: (§5) This protocol utilizes Isothermal Titration Calorimetry (ITC) to directly measure the heat change associated with binding of FKBP12-Compound 2 and FKBP12-Compound 6 binary complexes to CEP250. Measurement of the heat change allows accurate determination of association constants (Ka), reaction stoichiometry (N), and the change in binding enthalpy (ΔH).
(§6) Compound 2 and Compound 6 in 100% DMSO (in-house), Protein Buffer (10 mM HEPES, pH 7.5, 75 mM NaCl, 0.5 mM TCEP), assay buffer (protein buffer+1% DMSO), FKBP12 (in-house), CEP25029.4 (residues 1982-2231) and CEP25011.4 (residues 2134-2231) (in-house).
(§7) MicroCal™ ITC200 (GE Healthcare) Experimental Protocol: FKBP12 stock solution was diluted to 10 μM in assay buffer (1% DMSO final). Compound was added to FKBP12 to 20 μM (1% DMSO final), and binary complex was filled into the reaction cell of the ITC device after 5-10 min pre-incubation time. CEP250 protein stocks were diluted to 50 μM in assay buffer and supplemented with 20 μM compound (1% DMSO final) before being filled into the injection syringe. A control experiment in the absence of compound was also run to determine the heat associated with operational artifacts and the dilution of titrant as it was injected from the syringe into the reaction cell.

[6] = target: CEP25029.4 (residues 1982-2231) (Homo sapiens (Human), UniProt P62942+Q9BV73); assay: as above
Experimental: as §5, §6, §7

T2 sequence (Q9BV73 2134-2231): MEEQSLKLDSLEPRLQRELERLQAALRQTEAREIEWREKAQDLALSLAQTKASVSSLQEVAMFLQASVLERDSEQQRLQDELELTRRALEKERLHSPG
T2 sequence (P62942 whole entry, the tested form may be a part): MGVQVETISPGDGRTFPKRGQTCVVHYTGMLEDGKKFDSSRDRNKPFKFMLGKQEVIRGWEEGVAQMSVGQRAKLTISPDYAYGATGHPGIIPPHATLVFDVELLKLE
T1 sequence (P62942 whole entry): as the sequence (P62942 whole entry, the tested form may be a part) above
Sequence of CEP25029.4 (residues 1982-2231) (Q9BV73 1982-2231): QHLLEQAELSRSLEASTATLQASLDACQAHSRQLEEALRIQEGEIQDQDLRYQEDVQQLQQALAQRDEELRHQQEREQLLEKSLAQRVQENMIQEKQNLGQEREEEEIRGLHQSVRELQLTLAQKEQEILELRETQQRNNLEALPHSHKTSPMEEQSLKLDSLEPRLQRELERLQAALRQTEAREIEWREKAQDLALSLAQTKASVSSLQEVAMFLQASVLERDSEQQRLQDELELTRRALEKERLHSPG
Sequence of CEP25029.4 (residues 1982-2231) (P62942 whole entry, the tested form may be a part): as the sequence (P62942 whole entry, the tested form may be a part) above
Sequence of CEP25029.2 (residues 1982-2231) (Q9BV73 1982-2231): as the sequence (Q9BV73 1982-2231) above
Sequence of CEP25029.2 (residues 1982-2231) (P62942 whole entry, the tested form may be a part): as the sequence (P62942 whole entry, the tested form may be a part) above

CC[C@H](Cc1ccccc1)[C@@H]1/C=C/C/C=C/C[C@@H](C)[C@H](O)[C@@H](C)[C@@H]2CC[C@@H](C)C(=O)C(O)(O2)C(=O)N2CCCC[C@H]2C(=O)O1 [Compound 2]
IC50 (FKBP12 [1]): 1.5 nM | Kd (FKBP12 [2]): 13.2 nM | koff (FKBP12 [2]): 0.000594 s⁻¹ | kon (FKBP12 [2]; read-out: Ka): 45000 M⁻¹ s⁻¹ | Kd [3]: 0.00309 s⁻¹ | kon ([3]; read-out: Ka): 571000 M⁻¹ s⁻¹ | koff [4]: 9.25e-05 s⁻¹ | kon ([4]; read-out: Ka): 311000 M⁻¹ s⁻¹ | Kd [5]: 70 nM | ΔH ([5]; ITC, FKBP12 10 μM in cell, CEP25011.4 68 μM in syringe, ligand 20 μM, 298 K): -49.37 kJ/mol | ΔG ([5]; ITC, FKBP12 10 μM, CEP25011.4 68 μM, ligand 20 μM, 298 K, ΔG = −RT ln Ka): -40.75 kJ/mol | −T*ΔS ([5]; ITC, FKBP12 10 μM, CEP25011.4 68 μM, ligand 20 μM, 298 K, −TΔS = ΔG − ΔH): 8.62 kJ/mol | Kd [6]: 190 nM | ΔH ([6]; ITC, FKBP12 10 μM in cell, CEP25029.4 118 μM in syringe, ligand 20 μM, 298 K): -52.21 kJ/mol | ΔG ([6]; ITC, FKBP12 10 μM, CEP25029.4 118 μM, ligand 20 μM, 298 K, ΔG = −RT ln Ka): -38.41 kJ/mol | −T*ΔS ([6]; ITC, FKBP12 10 μM, CEP25029.4 118 μM, ligand 20 μM, 298 K, −TΔS = ΔG − ΔH): 13.80 kJ/mol
